Data taken from US20260317333A1, “Heteroaryl Compounds as Ligand Directed Degraders of IRAK4” (Celgene Corporation, priority 2023, published 2026).
Structures can show the parent of a compound that is named as a salt.

Tests used:
IRAK4 [1] = target: T1, IRAK4 (Homo sapiens, UniProt Q9NWZ3); assay: IRAK4 PhosphoSens Biochemical Assay (BIOCHEM); settings: 200 μM ATP; 10 μM peptide substrate AQT0326; 1 nM IRAK4; room temperature; 240 minutes
T1 sequence (Q9NWZ3 1-460): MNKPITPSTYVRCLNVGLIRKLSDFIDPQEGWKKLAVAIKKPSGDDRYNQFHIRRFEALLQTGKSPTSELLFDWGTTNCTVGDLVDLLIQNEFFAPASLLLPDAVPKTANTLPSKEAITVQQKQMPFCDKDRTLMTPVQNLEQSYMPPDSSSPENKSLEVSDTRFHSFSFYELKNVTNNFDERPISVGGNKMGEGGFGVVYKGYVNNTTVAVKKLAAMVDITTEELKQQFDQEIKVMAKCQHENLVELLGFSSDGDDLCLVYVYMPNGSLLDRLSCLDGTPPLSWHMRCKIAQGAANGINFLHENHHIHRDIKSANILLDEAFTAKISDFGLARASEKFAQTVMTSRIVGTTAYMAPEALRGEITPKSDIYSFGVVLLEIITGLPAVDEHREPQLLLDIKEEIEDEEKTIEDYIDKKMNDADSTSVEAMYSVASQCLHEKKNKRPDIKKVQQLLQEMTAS
Method: The PhosphoSens® biochemical assay was performed as described by the vendor (AssayQuant Technologies Inc. Marlborough, MA). A 1.25× stock solution of IRAK4 (PV4002, ThermoFisher Scientific, Waltham, MA) and a 5× stock solution of ATP and Sox conjugated peptide substrate, AQT0326 (CSKS-AQT0326B, AssayQuant Technologies), were prepared in 1× kinase reaction buffer consisting of 50 mM HEPES, pH 7.5, 0.01% Brij-35, 0.5 mM EGTA, 20 mM MgCl2 and 1 mM DTT. 10 μL of the ATP and substrate solution mix, for a final concentration of 200 μM ATP and 10 μM peptide substrate, was added to a Corning 3574 384-well, white, non-binding surface microtiter plate containing 0.5 μL of serially diluted test compounds prepared in DMSO. The reactions were started with the addition of 40 μL of the enzyme solution, for a final IRAK4 concentration of 1 nM, and monitored every 71 seconds for 240 minutes at λEX 360/λEM 485 in a BioTek Synergy H4 plate reader (Agilent Technologies, Santa Clara, CA) at room temperature. The initial linear portions of the progress curves were fit according to a linear equation to yield the slopes and converted to % inhibition based on a value of 100% activity for the no inhibitor treated control. IC50 values of each compound were obtained by fitting the % inhibition-compound concentration curves using Dotmatics software (Dotmatics, Bishops Stortford, Hertfordshire, England).

IRAK4 [2] = target: T1, IRAK4; assay: ALE THP1 HTRF (IRAK4 degradation in THP1 cells, HTRF with anti-IRAK4 antibodies); type: cell-based; parameters: THP1 Homogeneous Time Resolved Fluorescence (ALE THP1 HTRF) Procedure; endogenous in cells; host or cells: THP1; settings: THP1 cell lysate; for DC50: read-out: ALE THP1 HTRF EC50
Method: Cell culture media was prepared in a tissue culture hood in a sterile environment by adding 10% FBS and 1% Penicillin Streptomycin to 500 mL no phenol red RPMI 1640 media. The media was filtered through a Nalgene Bottle Top Filter and stored at 4° C.
For Homogenous Time Resolved Fluorescence (HTRF) assays, a Cisbio HTRF kit was used, which included: Lysis Buffer #1 4×, Blocking Reagent #3 100×, 20× Antibody 1 (Anti-IRAK4 d2), 20× Antibody 2 (Anti-IRAK4 k), and Detection Buffer.
4× Lysis Buffer was stored at 4° C. For use as 1× Lysis buffer, the 4× solution was diluted with de-ionized water (distilled water, Gibco Cat. #15230279) and 100× Blocking Reagent in a 1:3:0.04 volume ratio.
20× Antibody Solution aliquots were stored at −80° C. and the Detection Buffer was stored at 4° C. For use as a 1× Antibody Solution, the 20× Antibody Solution aliquot was diluted with Detection Buffer in a 1:19 volume ratio.
Cells were lysed at room temperature for 45 min with shaking. A BCA protein assay was performed and normalization was conducted to the desired total protein concentration with 1× lysis buffer. Next, 1× Antibody Solutions were prepared by adding 380 μL Detection Buffer to 20 μL 20× Antibody Solution aliquots and mixing well. 1× Antibody Solutions were combined 1:1 and briefly vortexed. For control wells, 20 μL 1× anti IRAK4-k Antibody Solution was saved. The 384-well plate (ProxiPlate-384 Plus, Perkin Elmer Cat. #6008289) was loaded by adding 4 μL of the mixed Antibody Solution to empty wells using a single channel repeater. Using a multi-channel repeater, 16 μL lysate was added per well, and any bubbles that were formed were popped with 20 μL pipette tips and Kimwipe edges. In column 10, triplicates of each control were prepared. In wells A10, B10, and C10, buffer control was prepared by adding 16 μL Lysis Buffer and 4 μL Detection Buffer. In wells D10, E10, and F10, cryptate control was prepared by adding 16 μL Lysis Buffer, 2 μL Detection Buffer, and 2 μL 1× anti-IRAK4-k Antibody Solution. In wells G10, H10, and I10, a negative control was prepared by adding 16 μL Lysis Buffer and 4 μL mixed Antibody Solution. The plate was sealed with a clear seal and covered with an aluminum lid. The plate was spun down at 800 g for 5 min and incubated in the dark at room temperature overnight. The next day, the plate was spun down at 800 g for 5 min. The samples were analyzed by a plate reader (Envision, PerkinElmer) using the Desnor 384 HTRF program.

Structure (SMILES)	IC50 (IRAK4 [1]) [nM]	ALE THP1 HTRF YMIN (IRAK4 [2]) [%]	DC50 (IRAK4 [2]) [nM]
N[C@@H]1C[C@@H](F)CN(c2ccn3ncc(C(=O)Nc4cn([C@H]5CC[C@H](C(=O)N6CCC(CNc7ccc(C8CCC(=O)NC8=O)cc7)CC6)CC5)nc4C(F)(F)F)c3n2)C1 (stereo partly drawn) [Compound P-2, N-[1-[4-[4-[[4-(2,6-Dioxo-3-piperidyl)anilino]methyl]piperidine-1-carbonyl]cyclohexyl]-3-(trifluoromethyl)pyrazol-4-yl]-5-[(3R,5R)-3-amino-5-fluoro-1-piperidyl]pyrazolo[1,5-a]pyrimidine-3-carboxamide hydrochloride]	0.3	68	96
N[C@@H]1C[C@@H](F)CN(c2ccn3ncc(C(=O)Nc4cn([C@H]5CC[C@H](CN6CCC(CNc7ccc(C8CCC(=O)NC8=O)cc7)CC6)CC5)nc4C(F)(F)F)c3n2)C1 (stereo partly shown) [Compound P-3]	0.3	81	177
N[C@@H]1C[C@@H](F)CN(c2ccn3ncc(C(=O)Nc4cn([C@H]5CC[C@H](C(=O)N6CCC(Nc7cccc(C8CCC(=O)NC8=O)c7)CC6)CC5)nc4C(F)(F)F)c3n2)C1 (stereo partly shown) [Compound P-9]	0.3	86	> 10000
N[C@@H]1C[C@@H](F)CN(c2ccn3ncc(C(=O)Nc4cn([C@H]5CC[C@H](CCN6CCN(c7ccc(C8CCC(=O)NC8=O)cc7)CC6)CC5)nc4C(F)(F)F)c3n2)C1 (stereo partly drawn) [Compound P-11, 5-((3R,5R)-3-Amino-5-fluoropiperidin-1-yl)-N-(1-((1r,4r)-4-(2-(4-(4-(2,6-dioxopiperidin-3-yl)phenyl)piperazin-1-yl)ethyl)cyclohexyl)-3-(trifluoromethyl)-1H-pyrazol-4-yl) pyrazolo[1,5-a]pyrimidine-3-carboxamide hydrochloride]	0.4	19	15
N[C@@H]1C[C@@H](F)CN(c2ccn3ncc(C(=O)Nc4cn([C@H]5CC[C@H](CCN6CCC7(CC6)CN(c6cccc(C8CCC(=O)NC8=O)c6)C7)CC5)nc4C(F)F)c3n2)C1 (stereo partly shown) [Compound P-26]	–	7	15
N[C@@H]1C[C@@H](F)CN(c2ccn3ncc(C(=O)Nc4cn([C@H]5CC[C@H](C(=O)N[C@H]6CC[C@@H](c7ccc(C8CCC(=O)NC8=O)cn7)CC6)CC5)nc4C(F)F)c3n2)C1 (stereo partly shown) [Compound P-31]	–	>95	> 10000
N[C@@H]1C[C@@H](F)CN(c2ccn3ncc(C(=O)Nc4cn([C@H]5CC[C@H](C(=O)NC6CCN(c7ccc(C8CCC(=O)NC8=O)cn7)CC6)CC5)nc4C(F)F)c3n2)C1 (stereo partly drawn) [Compound P-32, N-[3-(Difluoromethyl)-1-[4-[[1-[5-(2,6-dioxo-3-piperidyl)-2-pyridyl]-4-piperidyl]carbamoyl]cyclohexyl]pyrazol-4-yl]-5-[(3R,5R)-3-amino-5-fluoro-1-piperidyl]pyrazolo[1,5-a]pyrimidine-3-carboxamide hydrochloride]	–	21	5
N[C@@H]1C[C@@H](F)CN(c2ccn3ncc(C(=O)Nc4cn([C@H]5CC[C@H](C(=O)N[C@H]6CC[C@H](c7ccc(C8CCC(=O)NC8=O)cn7)CC6)CC5)nc4C(F)F)c3n2)C1 (stereo partly shown) [Compound P-33]	–	22	3

Further lines, results first:

IC50 (IRAK4 [1]) [nM]	ALE THP1 HTRF YMIN (IRAK4 [2]) [%]	DC50 (IRAK4 [2]) [nM]	Structure (SMILES)
0.4	10	7	N[C@@H]1C[C@@H](F)CN(c2ccn3ncc(C(=O)Nc4cn([C@H]5CC[C@H](C(=O)N6CCC(CNc7cccc(C8CCC(=O)NC8=O)c7)CC6)CC5)nc4C(F)(F)F)c3n2)C1 (stereo partly drawn) [Compound P-1, N-[1-[4-[4-[[3-(2,6-dioxo-3-piperidyl)anilino]methyl]piperidine-1-carbonyl]cyclohexyl]-3-(trifluoromethyl)pyrazol-4-yl]-5-[(3R,5R)-3-amino-5-fluoro-1-piperidyl]pyrazolo[1,5-a]pyrimidine-3-carboxamide hydrochloride salt]
0.3	52	> 10000	N[C@@H]1C[C@@H](F)CN(c2ccn3ncc(C(=O)Nc4cn([C@H]5CC[C@H](C(=O)N6CCC(Nc7ccc(C8CCC(=O)NC8=O)cc7)CC6)CC5)nc4C(F)(F)F)c3n2)C1 (stereo partly shown) [Compound P-7]
0.6	20	964	N[C@@H]1C[C@@H](F)CN(c2ccn3ncc(C(=O)Nc4cn([C@H]5CC[C@H](CN6CCN(c7ccc(C8CCC(=O)NC8=O)cc7)CC6)CC5)nc4C(F)(F)F)c3n2)C1 (stereo partly shown) [Compound P-10]
–	16	10	N[C@@H]1C[C@@H](F)CN(c2ccn3ncc(C(=O)Nc4cn(C5CCN(CCN6CCN(c7ccc(C8CCC(=O)NC8=O)cc7)CC6)CC5)nc4C(F)F)c3n2)C1 (stereo partly drawn) [Compound P-27, 5-((3R,5R)-3-Amino-5-fluoropiperidin-1-yl)-N-(3-(difluoromethyl)-1-(1-(2-(4-(4-(2,6-dioxopiperidin-3-yl)phenyl)piperazin-1-yl)ethyl)piperidin-4-yl)-1H-pyrazol-4-yl) pyrazolo[1,5-a]pyrimidine-3-carboxamide trihydrochloride]
–	>95	> 10000	N[C@@H]1C[C@@H](F)CN(c2ccn3ncc(C(=O)Nc4cn([C@H]5CC[C@H](CCN6CCC[C@H](c7ccc(C8CCC(=O)NC8=O)cc7)C6)CC5)nc4C(F)F)c3n2)C1 (stereo partly shown) [Compound P-28]
–	>95	> 10000	N[C@@H]1C[C@@H](F)CN(c2ccn3ncc(C(=O)Nc4cn([C@H]5CC[C@H](C(=O)N[C@H]6CC[C@@H](c7ccc(C8CCC(=O)NC8=O)nc7)CC6)CC5)nc4C(F)F)c3n2)C1 (stereo partly shown) [Compound P-30]
–	13	5	N[C@@H]1C[C@@H](F)CN(c2ccn3ncc(C(=O)Nc4cn([C@H]5CC[C@H](C(=O)N[C@H]6CC[C@H](c7ccc(C8CCC(=O)NC8=O)nc7)CC6)CC5)nc4C(F)F)c3n2)C1 (stereo partly shown) [Compound P-34]
